Counter-ions that a name gives are not always drawn. Like-named read-outs stand apart in the source and are kept apart here.
Columns and labels:
Assay in all cases: MIC by broth microdilution (CLSI)
Type in all cases: cell-based
[1] = tested on: A. baumannii ATCC 19606 (HAV#010); conditions: Acinetobacter baumannii, ATCC19606, 24 h, read-out: MIC A. baumannii ATCC 19606
Procedure: (§1) Minimum inhibitory concentrations (MICs) were determined by the broth microdilution method following the Clinical and Laboratory Standards Institute (CLSI) guidelines. Test organisms consisted of standard reference strains from the American Type Culture Collection (ATCC; Manassa, VA, USA) and clinical isolates obtained from JMI Laboratories Inc. (North Liberty, IA, USA), Micromyx repository (MMX; Kalamazoo, MI, USA), and Massachusetts Eye and Ear Hospital (Boston, USA). Before the start of the MIC experiment, standard and test compound stock solutions were prepared in dimethyl sulfoxide (DMSO, Aldrich D2650) at a stock concentration of 2,560 μg/mL. The compound concentration range typically employed for each experiment was 64-0.06 μg/mL (2.5% final DMSO concentration). Iboxamycin was used as a comparator in all experiments. All bacterial strains were sub-cultured on blood agar plates (tryptic soy agar with 5% sheep blood, Hardy Diagnostics) and incubated overnight at 35° C. Organisms were suspended in cation-adjusted Mueller-Hinton broth (CaMHB, BD 212322) and optical density was adjusted to 0.5 McFarland standard. Suspensions were further diluted to obtain a final inoculum of 5×10^5 CFU/mL for broth microdilution experiments. The minimum concentration of compound required to inhibit visible bacterial growth after 24 h of incubation was recorded as the MIC in μg/mL. MICs for P. aeruginosa were recorded in cation-adjusted Mueller-Hinton broth which had been pre-treated with Chelex 100 ion exchange resin according to procedures reported in Ito et al. Antimicrob Agents Chemother (2016) 60 (12), 7396-7401.

[2] = tested on: E. faecalis ATCC 29212 (HAV#005); conditions: Enterococcus faecalis, ATCC29212, 24 h, read-out: MIC E. faecalis ATCC 29212
Procedure: as §1

[3] = tested on: E. coli ΔtolC; conditions: Escherichia coli, 24 h, read-out: MIC E. coli ΔtolC, ΔtolC; CaMHB, 24 h incubation
Procedure: as §1

[4] = tested on: S. aureus Clinical (cfr); conditions: Staphylococcus aureus, 24 h, read-out: MIC S. aureus Clinical (cfr)
Procedure: as §1

[5] = tested on: S. aureus ATCC 29213 (HAV#001); conditions: Staphylococcus aureus, ATCC29213, 24 h, read-out: MIC S. aureus ATCC 29213
Procedure: as §1

[6] = tested on: E. coli lptD mutant; conditions: Escherichia coli, 24 h, read-out: MIC E. coli lptD mutant, lptD mutant / ΔlptD mutant; CaMHB, 24 h incubation
Procedure: as §1

[7] = tested on: S. aureus MMX 3035; conditions: Staphylococcus aureus, MMX3035, 24 h, read-out: MIC S. aureus MMX 3035
Procedure: as §1

[8] = tested on: E. faecium JMI-990536; conditions: Enterococcus faecium, JMI990536, 24 h, read-out: MIC E. faecium JMI-990536
Procedure: as §1

[9] = tested on: K. pneumoniae JMI-991193; conditions: Klebsiella pneumoniae, JMI991193, 24 h, read-out: MIC K. pneumoniae JMI-991193
Procedure: as §1

[10] = tested on: E. coli ATCC 25922 (HAV#006); conditions: Escherichia coli, ATCC25922, 24 h, read-out: MIC E. coli ATCC 25922
Procedure: as §1

[11] = HAV#010, ATCC 19606, CaMHB, 24 h incubation
[12] = HAV#005, ATCC 29212, CaMHB, 24 h incubation
[13] = Clinical (cfr), CaMHB, 24 h incubation
[14] = HAV#001, ATCC 29213, CaMHB, 24 h incubation
[15] = MMX 3035, CaMHB, 24 h incubation
[16] = JMI-990536, CaMHB, 24 h incubation
[17] = JMI-991193, CaMHB, 24 h incubation
[18] = HAV#006, ATCC 25922, CaMHB, 24 h incubation

Structure (SMILES)	MIC [1, 11] [µg/mL]	MIC [2, 12] [µg/mL]	MIC [3] [µg/mL]	MIC [4, 13] [µg/mL]	MIC [5, 14] [µg/mL]	MIC [6] [µg/mL]	MIC [7, 15] [µg/mL]	MIC [8, 16] [µg/mL]	MIC [9, 17] [µg/mL]	MIC [10, 18] [µg/mL]	MIC [1] [µg/mL]	MIC [2] [µg/mL]	MIC [4] [µg/mL]	MIC [5] [µg/mL]	MIC [7] [µg/mL]	MIC [8] [µg/mL]	MIC [9] [µg/mL]	MIC [10] [µg/mL]
CC(C)C[C@@H]1CCO[C@@H]2[C@H](CN[C@@H]2C(=O)N[C@@H]2C/C=C\C[C@@H](CN3CCOCC3)S[C@H]3O[C@H]2[C@H](O)[C@H](O)[C@H]3O)C1 [FSA1607019, (4S,5aS,8S,8aR)-4-isobutyl-N-((1R,3S,8R,9R,10R,11S,12R,Z)-10,11,12-trihydroxy-3-(morpholinomethyl)-13-oxa-2-thiabicyclo[7.3.1]tridec-5-en-8-yl) octahydro-2H-oxepino[2,3-c]pyrrole-8-carboxamide formate salt]	32	2	0.25	16	4	0.5	8	4	> 64	4								
CC(C)C[C@@H]1CCO[C@@H]2[C@H](CN[C@@H]2C(=O)N[C@@H]2C/C=C\C[C@H](CN3CCOCC3)S[C@H]3O[C@H]2[C@H](O)[C@H](O)[C@H]3O)C1 [FSA1607020, (4S,5aS,8S,8aR)-4-isobutyl-N-((1R,3R,8R,9R,10R,11S,12R,Z)-10,11,12-trihydroxy-3-(morpholinomethyl)-13-oxa-2-thiabicyclo[7.3.1]tridec-5-en-8-yl) octahydro-2H-oxepino[2,3-c]pyrrole-8-carboxamide formate salt]	32	4	0.25	16	4	1	16	16	> 64	8								
CC(C)C[C@@H]1CCO[C@@H]2[C@H](CN[C@@H]2C(=O)N[C@@H]2C/C=C\C[C@@H](F)CS[C@H]3O[C@H]2[C@H](O)[C@H](O)[C@H]3O)C1 [FSA1607022, (4S,5aS,8S,8aR)—N-((1R,4R,9R,10R,11R,12S,13R,Z)-4-fluoro-11,12,13-trihydroxy-14-oxa-2-thiabicyclo[8.3.1]tetradec-6-en-9-yl)-4-isobutyloctahydro-2H-oxepino[2,3-c]pyrrole-8-carboxamide formate salt]			0.25			0.25					2	≤ 0.06	4	≤ 0.06	4	1	8	2
CC(=O)OC[C@@H]1C/C=C\C[C@@H](NC(=O)[C@H]2NC[C@@H]3C[C@H](CC(C)C)CCO[C@H]32)[C@H]2O[C@H](S1)[C@H](O)[C@@H](O)[C@H]2O [FSA1607032, ((1R,3S,8R,9R,10R,11S,12R,Z)-10,11,12-trihydroxy-8-((4S,5aS,8S,8aR)-4-isobutyloctahydro-2H-oxepino[2,3-c]pyrrole-8-carboxamido)-13-oxa-2-thiabicyclo[7.3.1]tridec-5-en-3-yl)methyl acetate formate salt]			0.25			2					32	0.5	16	0.5	4	2	64	8
CC(C)C[C@@H]1CCO[C@@H]2[C@H](CN[C@@H]2C(=O)N[C@@H]2C/C=C\C[C@@H](C(F)F)S[C@H]3O[C@H]2[C@H](O)[C@H](O)[C@H]3O)C1 [FSA1607044, (4S,5aS,8S,8aR)—N-((1R,3S,8R,9R,10R,11S,12R,Z)-3-(difluoromethyl)-10,11,12-trihydroxy-13-oxa-2-thiabicyclo[7.3.1]tridec-5-en-8-yl)-4-isobutyloctahydro-2H-oxepino[2,3-c]pyrrole-8-carboxamide formate salt]			0.5			2					8	0.125	16	0.125	2	1	16	8
CC(C)C[C@@H]1CCO[C@@H]2[C@H](CN[C@@H]2C(=O)N[C@@H]2C/C=C\C[C@@H](c3cn(-c4ccccc4)nn3)S[C@H]3O[C@H]2[C@H](O)[C@H](O)[C@H]3O)C1 [FSA1607075, (4S,5aS,8S,8aR)-4-isobutyl-N-((1R,3S,8R,9R,10R,11S,12R,Z)-10,11,12-trihydroxy-3-(1-phenyl-1H-1,2,3-triazol-4-yl)-13-oxa-2-thiabicyclo[7.3.1]tridec-5-en-8-yl) octahydro-2H-oxepino[2,3-c]pyrrole-8-carboxamide formate salt]	8	2	2	8	2	2	4	2	32	4								
C#C[C@@H]1C/C=C\C[C@@H](NC(=O)[C@H]2NC[C@@H]3C[C@H](CC(C)C)CCO[C@H]32)[C@H]2O[C@H](S1)[C@H](O)[C@@H](O)[C@H]2O [FSA1607077, (4S,5aS,8S,8aR)—N-((1R,3S,8R,9R,10R,11S,12R,Z)-3-ethynyl-10,11,12-trihydroxy-13-oxa-2-thiabicyclo[7.3.1]tridec-5-en-8-yl)-4-isobutyloctahydro-2H-oxepino[2,3-c]pyrrole-8-carboxamide formate salt]			1			1					8	≤ 0.125	16	≤ 0.125	4	2	16	4
CC(C)C[C@@H]1CCO[C@@H]2[C@H](CN[C@@H]2C(=O)N[C@@H]2C/C=C\C[C@@H](c3c[nH]nn3)S[C@H]3O[C@H]2[C@H](O)[C@H](O)[C@H]3O)C1 [FSA1607090, (4S,5aS,8S,8aR)-4-isobutyl-N-((1R,3S,8R,9R,10R,11S,12R,Z)-10,11,12-trihydroxy-3-(1H-1,2,3-triazol-4-yl)-13-oxa-2-thiabicyclo[7.3.1]tridec-5-en-8-yl) octahydro-2H-oxepino[2,3-c]pyrrole-8-carboxamide formate salt]	> 64	32	4	> 64	8	8	32	16	> 64	> 64								
CC(C)C[C@@H]1CCO[C@@H]2[C@H](CN[C@@H]2C(=O)N[C@@H]2C/C=C/[C@H](O)CS[C@H]3O[C@H]2[C@H](O)[C@H](O)[C@H]3O)C1 [FSA1608009, (4S,5aS,8S,8aR)-4-isobutyl-N-((1R,4S,8R,9R,10R,11S,12R,E)-4,10,11,12-tetrahydroxy-13-oxa-2-thiabicyclo[7.3.1]tridec-5-en-8-yl) octahydro-2H-oxepino[2,3-c]pyrrole-8-carboxamide formate salt]	> 64	> 64	> 64	> 64	32	> 64	> 64	> 64	> 64	> 64								

Reference: patent US20250270246A1, “LINCOSAMIDES AND USES THEREOF” (President and Fellows of Harvard College, priority 2022, published 2025)
